pEC50: −log10 of the molar value. Read-outs that look alike come from different tables or passages of the source.
What was measured:
HEL cells [1] = conditions: read-out: CC50 (HEL); HEL cells; anti-VZV table
VZV (wild-type strains) = assay: Anti-VZV assay (wild-type strains): virus-induced cytopathicity in HEL cell cultures; type: cell-based, varicella-zoster virus; conditions: HEL cell cultures
HEL cells [2] = conditions: anti-VZV table
BVDV-1 (strain PE515) = assay: Anti-BVDV assay in MDBK cells (MTS); type: cell-based, bovine viral diarrhea virus
Method: Cells and viruses: Madin-Darby Bovine Kidney (MDBK) cells were maintained in Dulbecco's modified Eagle medium (DMEM) supplemented with BVDV-free 5% fetal calf serum (DMBM-FCS) at 37° C. in a humidified, 5% CO2 atmosphere. BVDV-1 (strain PE515) was used to assess the antiviral activity in MDBK cells. Vero cells (ATCC CCL81) were maintained in MEM medium supplemented with 10% inactivated calf serum, 1% L-glutamine and 0.3% bicarbonate.
Anti-BVDV assay: Ninety-six-well cell culture plates were seeded with MDBK cells in DMEM-FCS so that cells reached 24 hr later confluency. Then medium was removed and serial 5-fold dilutions of the test compounds were added in a total volume of 100 ul, after which the virus inoculum (100 ul) was added to each well. […] Uninfected cells and cells receiving virus without compound were included in each assay plate. After 5 days, medium was removed and 90 μt of DMEM-FCS and 10 ul of MTS/PMS solution (Promega) was added to each well. Following a 2 hr incubation period at 37° C. the optical density of the wells was read at 498 nm in a microplate reader.

in vitro = conditions: human

Row | SMILES | CC50 (HEL cells [1]) | pEC50 (VZV (wild-type strains); VZV strain OKA, read-out: EC50 VZV (OKA)) | pEC50 (VZV (wild-type strains); VZV strain YS, read-out: EC50 VZV (YS)) | MTC (MDBK) (MDBK cells) | MTC (HEL) (HEL cells [2]) | activity against BVDV (BVDV-1 (strain PE515)) | pEC50 (BVDV-1 (strain PE515); MDBK cells) | CC50 (in vitro) | pEC50 (VZV (wild-type strains); Human alphaherpesvirus 3, VZV strain OKA, read-out: EC50 VZV (OKA))
1 | CCCCCCCCCCN1CCN(C(=O)C2NC(=O)C3NC(=O)C(NC(=O)C4NC(=O)C5NC(=O)C(Cc6ccc(c(Cl)c6)Oc6cc4cc(c6O)Oc4ccc(cc4Cl)C3O)NC(=O)C(N)c3ccc(O)c(c3)Oc3cc(O)cc5c3)c3ccc(O)c(c3)-c3c(O)cc(O)cc32)CC1 (stereo not shown) [Compound 126] | > 50 µM | 6.00 | 6.52 | 60 | >5 to 50 µM | activity | 4.92 | – | –
2 | COC(=O)C1NC(=O)C2NC(=O)C(NC(=O)C(N)c3cc(Oc4ccc(CC(NC(=O)OCc5ccccc5)C(=O)O)cc4Cl)c(O)c(c3)Oc3ccc(cc3Cl)C2O)c2ccc(O)c(c2)-c2c(O)cc(O)cc21 (stereo not shown) [Compound 169] | – | – | – | – | >200 µM | – | – | 50 µM | 4.47
